Several values for one entry are separate records, joined by “and”; a condition that tells them apart may be missing. Equal entries are not always repeated. Toxic doses and inconclusive results are not listed.
Test system: L1210 leukemia ip in BDF1 mice, survival T/C
Experiment: NCI In Vivo Anticancer Drug Screen. Data for tumor model L1210 Leukemia (intraperitoneal) in B6D2F1 (BDF1) mice
Details: endpoint: mean survival time, higher = longer survival
Method in brief: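 Read-out is survival time, reported as the treated-group measurement over the vehicle-control measurement.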

[1] = dose: 100.0 mg/kg/injection, schedule: Q04DX003 (ip), vehicle: saline with Tween-80
[2] = dose: 200.0 mg/kg/injection, schedule: Q04DX003 (ip), vehicle: saline with Tween-80
[3] = dose: 400.0 mg/kg/injection, schedule: Q04DX003 (ip), vehicle: saline with Tween-80
[4] = dose: 100.0 mg/kg/injection, schedule: Q01DX001 (ip), vehicle: carboxymethylcellulose (CMC)
[5] = dose: 200.0 mg/kg/injection, schedule: Q01DX001 (ip), vehicle: carboxymethylcellulose (CMC)
[6] = dose: 100.0 mg/kg/injection, schedule: Q01DX001 (ip), vehicle: saline
[7] = dose: 200.0 mg/kg/injection, schedule: Q01DX001 (ip), vehicle: saline
[8] = dose: 400.0 mg/kg/injection, schedule: Q01DX001 (ip), vehicle: carboxymethylcellulose (CMC)
[9] = dose: 150.0 mg/kg/injection, schedule: Q01DX001 (ip), vehicle: saline
[10] = dose: 100.0 mg/kg/injection, schedule: Q01DX009 (ip), vehicle: Klucel (hydroxypropylcellulose) (HPC)
[11] = dose: 200.0 mg/kg/injection, schedule: Q01DX009 (ip), vehicle: Klucel (hydroxypropylcellulose) (HPC)
[12] = dose: 400.0 mg/kg/injection, schedule: Q01DX009 (ip), vehicle: Klucel (hydroxypropylcellulose) (HPC)
[13] = dose: 100.0 mg/kg/injection, schedule: Q04DX003 (ip), vehicle: saline

## O=C(C(=O)N1CC2OC2C1)N1CC2OC2C1 (centres undefined)
dose: 29.0 mg/kg/injection, schedule: Q04DX002 (ip), vehicle: saline with Tween-80
  T/C: 95 % of control
dose: 39.0 mg/kg/injection, schedule: Q01DX001 (ip), vehicle: saline with Tween-80
  T/C: 98 % of control
dose: 44.0 mg/kg/injection, schedule: Q04DX002 (ip), vehicle: saline with Tween-80
  T/C: 100 % of control
dose: 59.0 mg/kg/injection, schedule: Q01DX001 (ip), vehicle: saline with Tween-80
  T/C: 102 % of control
dose: 67.0 mg/kg/injection, schedule: Q04DX002 (ip), vehicle: saline with Tween-80
  T/C: 100 % of control
dose: 88.0 mg/kg/injection, schedule: Q01DX001 (ip), vehicle: saline with Tween-80
  T/C: 97 % of control
dose: 133.0 mg/kg/injection, schedule: Q01DX001 (ip), vehicle: saline with Tween-80
  T/C: 97 % of control
dose: 150.0 mg/kg/injection, schedule: Q04DX002 (ip), vehicle: saline with Tween-80
  T/C: 102 % of control
dose: 200.0 mg/kg/injection, schedule: Q01DX001 (ip), vehicle: saline with Tween-80
  T/C: 97 % of control
dose: 200.0 mg/kg/injection, schedule: Q04DX002 (ip), vehicle: saline with Tween-80
  T/C: 239 % of control
dose: 225.0 mg/kg/injection, schedule: Q04DX002 (ip), vehicle: saline with Tween-80
  T/C: 105 % of control
dose: 300.0 mg/kg/injection, schedule: Q01DX001 (ip), vehicle: saline with Tween-80
  T/C: 100 % of control

## CCCCOC(=O)NCCSC(=O)OCCCC
[1]
  T/C: 101 % of control
[2]
  T/C: 93 % of control
[3]
  T/C: 95 % of control

## CCN(CC)CCOC(=O)C(O)(c1ccccc1)c1ccccc1
dose: 25.0 mg/kg/injection, schedule: Q04DX002 (ip), vehicle: saline
  T/C: 101 % of control
dose: 50.0 mg/kg/injection, schedule: Q04DX002 (ip), vehicle: saline
  T/C: 93 % of control
dose: 100.0 mg/kg/injection, schedule: Q04DX002 (ip), vehicle: saline
  T/C: 93 % of control and 115 % of control

## O=c1[nH]nnc2c1cnn2-c1ccccc1
[4]
  T/C: 101 % of control
[5]
  T/C: 97 % of control

## O=C(NCCSSCCNC(=O)c1ccccc1)c1ccccc1
[6]
  T/C: 92 % of control
[7]
  T/C: 96 % of control
dose: 400.0 mg/kg/injection, schedule: Q01DX001 (ip), vehicle: saline
  T/C: 100 % of control

## CCOC(=O)CNc1ccc(F)c(F)c1
dose: 100.0 mg/kg/injection, schedule: Q04DX002 (ip), vehicle: Klucel (hydroxypropylcellulose) (HPC)
  T/C: 97 % of control
dose: 200.0 mg/kg/injection, schedule: Q04DX002 (ip), vehicle: Klucel (hydroxypropylcellulose) (HPC)
  T/C: 90 % of control
dose: 400.0 mg/kg/injection, schedule: Q04DX002 (ip), vehicle: Klucel (hydroxypropylcellulose) (HPC)
  T/C: 103 % of control

## Nc1nc(N)c(N=Nc2ccc(S(=O)(=O)Nc3ncccn3)cc2)cc1N=Nc1ccccc1
[4]
  T/C: 101 % of control
[5]
  T/C: 95 % of control
[8]
  T/C: 103 % of control

## N/N=C1\CC(=O)NC(=O)N1
dose: 75.0 mg/kg/injection, schedule: Q01DX001 (ip), vehicle: saline
  T/C: 90 % of control
[9]
  T/C: 96 % of control

## C=C(Br)S(=O)(=O)C(=C)Br
dose: 6.25 mg/kg/injection, schedule: Q04DX002 (ip), vehicle: alcohol
  T/C: 101 % of control
dose: 12.5 mg/kg/injection, schedule: Q04DX002 (ip), vehicle: alcohol
  T/C: 111 % of control
dose: 25.0 mg/kg/injection, schedule: Q04DX002 (ip), vehicle: alcohol
  T/C: 101 % of control

## Cc1cc(C)cc(OC(=O)Nc2ccccc2Cl)c1
[10]
  T/C: 88 % of control
dose: 100.0 mg/kg/injection, schedule: Q04DX003 (ip), vehicle: Klucel (hydroxypropylcellulose) (HPC)
  T/C: 98 % of control
[11]
  T/C: 92 % of control
dose: 200.0 mg/kg/injection, schedule: Q04DX003 (ip), vehicle: Klucel (hydroxypropylcellulose) (HPC)
  T/C: 98 % of control
[12]
  T/C: 86 % of control
dose: 400.0 mg/kg/injection, schedule: Q04DX003 (ip), vehicle: Klucel (hydroxypropylcellulose) (HPC)
  T/C: 98 % of control

## O=C1/C(=C/c2ccco2)CCC2CC3(CCC12)OCCO3 (centres undefined)
dose: 100.0 mg/kg/injection, schedule: Q01DX009 (ip), vehicle: saline
  T/C: 116 % of control
[13]
  T/C: 92 % of control
dose: 200.0 mg/kg/injection, schedule: Q01DX009 (ip), vehicle: saline
  T/C: 102 % of control
dose: 200.0 mg/kg/injection, schedule: Q04DX003 (ip), vehicle: saline
  T/C: 97 % of control
dose: 400.0 mg/kg/injection, schedule: Q01DX009 (ip), vehicle: saline
  T/C: 98 % of control
dose: 400.0 mg/kg/injection, schedule: Q04DX003 (ip), vehicle: saline
  T/C: 94 % of control

## c1ccc(CNCCNCCNCc2ccccc2)cc1
[1]
  T/C: 101 % of control
[2]
  T/C: 98 % of control
[3]
  T/C: 94 % of control

## Cc1cc(/C=N\N=C(N)N)c(C)n1-c1ccccc1
dose: 15.0 mg/kg/injection, schedule: Q01DX Z (ip), vehicle: carboxymethylcellulose (CMC)
  T/C: 92 % of control
dose: 30.0 mg/kg/injection, schedule: Q01DX Z (ip), vehicle: carboxymethylcellulose (CMC)
  T/C: 95 % of control
dose: 60.0 mg/kg/injection, schedule: Q01DX Z (ip), vehicle: carboxymethylcellulose (CMC)
  T/C: 89 % of control
dose: 60.0 mg/kg/injection, schedule: Q01DX Z (oral), vehicle: carboxymethylcellulose (CMC)
  T/C: 106 % of control
dose: 120.0 mg/kg/injection, schedule: Q01DX Z (ip), vehicle: carboxymethylcellulose (CMC)
  T/C: 97 % of control
dose: 120.0 mg/kg/injection, schedule: Q01DX Z (oral), vehicle: carboxymethylcellulose (CMC)
  T/C: 101 % of control
dose: 240.0 mg/kg/injection, schedule: Q01DX Z (oral), vehicle: carboxymethylcellulose (CMC)
  T/C: 95 % of control and 100 % of control
dose: 480.0 mg/kg/injection, schedule: Q01DX Z (oral), vehicle: carboxymethylcellulose (CMC)
  T/C: 95 % of control and 102 % of control
dose: 960.0 mg/kg/injection, schedule: Q01DX Z (oral), vehicle: carboxymethylcellulose (CMC)
  T/C: 103 % of control
dose: 1920.0 mg/kg/injection, schedule: Q01DX Z (oral), vehicle: carboxymethylcellulose (CMC)
  T/C: 107 % of control

## O=C(O)C(O)c1cccc(Cl)c1 (centres undefined)
dose: 75.0 mg/kg/injection, schedule: Q01DX001 (ip), vehicle: acetone
  T/C: 94 % of control
dose: 150.0 mg/kg/injection, schedule: Q01DX001 (ip), vehicle: acetone
  T/C: 94 % of control

## O=C(O)c1cccc(SSc2cccc(C(=O)O)c2)c1
[4]
  T/C: 94 % of control
[5]
  T/C: 100 % of control
[8]
  T/C: 102 % of control

## BrCCN(CCBr)c1ccc2c3c(cccc13)-c1ccccc1-2
dose: 0.3 mg/kg/injection, schedule: Q01DX Z (ip), vehicle: other
  T/C: 117 % of control
dose: 0.7 mg/kg/injection, schedule: Q01DX Z (ip), vehicle: other
  T/C: 120 % of control
dose: 1.5 mg/kg/injection, schedule: Q01DX Z (ip), vehicle: other
  T/C: 123 % of control
dose: 6.25 mg/kg/injection, schedule: Q01DX009 (ip), vehicle: acetone
  T/C: 112 % of control
dose: 7.5 mg/kg/injection, schedule: Q01DX Z (ip), vehicle: other
  T/C: 101 % of control
dose: 11.0 mg/kg/injection, schedule: Q01DX Z (ip), vehicle: other
  T/C: 112 % of control
dose: 50.0 mg/kg/injection, schedule: Q01DX001 (ip), vehicle: carboxymethylcellulose (CMC)
  T/C: 124 % of control
[4]
  T/C: 114 % of control
[13]
  T/C: 120 % of control
[5]
  T/C: 124 % of control
[8]
  T/C: 120 % of control

## Cc1cccc(NC(=O)C(C)(C)C)c1C
[10]
  T/C: 106 % of control
[11]
  T/C: 95 % of control
[12]
  T/C: 101 % of control

## CC[n+]1cc(-c2ccc(NC(=O)/C=C\c3ccc(C(=O)Nc4ccc(-c5c[n+](CC)c(N)nc5N)cc4)cc3)cc2)c(N)nc1N
dose: 2.7 mg/kg/injection, schedule: Q01DX015 (ip), vehicle: saline
  T/C: 156 % of control
dose: 6.2 mg/kg/injection, schedule: Q01DX015 (ip), vehicle: saline
  T/C: 153 % of control
dose: 9.3 mg/kg/injection, schedule: Q01DX015 (ip), vehicle: saline
  T/C: 152 % of control
dose: 14.0 mg/kg/injection, schedule: Q01DX015 (ip), vehicle: saline
  T/C: 201 % of control
dose: 22.0 mg/kg/injection, schedule: Q01DX015 (ip), vehicle: saline
  T/C: 207 % of control
dose: 45.0 mg/kg/injection, schedule: Q01DX001 (ip), vehicle: saline
  T/C: 101 % of control
dose: 70.0 mg/kg/injection, schedule: Q01DX001 (ip), vehicle: saline
  T/C: 188 % of control
[6]
  T/C: 225 % of control and 248 % of control
[9]
  T/C: 107 % of control
[7]
  T/C: 105 % of control
dose: 155.0 micrograms/kg/injection, schedule: Q01DX009 (ip), vehicle: saline
  T/C: 121 % of control
